Measurements as given in US20250163387A1, “HUMAN PITUITARY NEUROENDOCRINE TUMOR ORGANOIDS AND METHODS OF MAKING AND USING THE SAME” (ARIZONA BOARD OF REGENTS OF THE UNIVERSITY OF ARIZONA, A …, priority 2022, published 2025).

Key:
macroadenomas = conditions: patients with macroadenomas; relacorilant for three months; cited from earlier work
iPSC^ctrl organoids [1] = test: Nuclear irregularity index (NII) morphometric analysis; type: cell-based, human; conditions: 500 nM
Experimental: (§1) Nuclear Morphometric Analysis (NMA) using treated organoids was performed based on a published protocol that measures cell viability based on the changes in nuclear morphology of the cells using nuclear stain Hoechst or DAPI [30]. Images of organoid nuclei were analyzed using the ImageJ Nuclear Irregularity Index (NII) plugin for key parameters that included cell area, radius ratio, area box, aspect, and roundness. Using the published spreadsheet template, the NII of each cell was calculated with the following formula: NII=Aspect−Area Box+Radius Ratio+Roundness. The area vs NII of vehicle-treated cells were plotted as a scatter plot using the template and considered as the normal cell nuclei. The same plots were generated for each condition, and the NII and area of treated cells were compared to the normal nuclei, and classified as one of the following NMA populations: Normal (N; similar area and NII), Mitotic (S; similar area, slightly higher NII), Irregular (I; similar area, high NII), Small Regular (SR; apoptotic, low area and NII), Senescent (LR; high area, low NII), Small Irregular (SI; low area, high NII), or Large Irregular (LI; high area, high NII). […] The percentage of cells in each NII classification category were calculated and plotted as a histogram using GraphPad Prism.

iPSC^USP48MV organoids [2] = test: as above; type: cell-based, human; conditions: 500 nM
Experimental: as §1

SSTR2 = test: Differential expression of SSTR2 in iPSC generated pituitary tumor organoids; type: cell-based, human
SSTR5 = test: Differential expression of SSTR5 in iPSC generated pituitary tumor organoids; type: cell-based, human
iPSC^ctrl organoids [3] = test: ACTH secretion ELISA of conditioned media; type: cell-based, human; conditions: 500 nM
Experimental: (§2) Concentration of secreted ACTH in conditioned media that was collected from organoid cultures was measured using the Human ACTH ELISA Kit (Novus Biologicals, NBP2-66401) according to the manufacturer's protocol. The enzyme-substrate reaction was measured spectrophotometrically (BioTek Gen5 Micro Plate Reader Version 3.11) at a wavelength of 450 nm and the ACTH concentration (pg/mL) was interpolated using a standard curve with a 4-parameter logistic regression analysis using GraphPad Prism (Version 9.2.0).

iPSC^USP48MV organoids [4] = test: ACTH secretion ELISA of conditioned media; type: cell-based, human; conditions: 500 nM
Experimental: as §2

iPSC^USP48MV organoids [5] = test: Spectral flow cytometry (SSTR2, SSTR5, ACTH, zombie); type: cell-based, human; conditions: Rela 500 nM, Mife 500 nM
Experimental: (§3) The multicolor flow cytometry panel was designed using the Cytek®Full Spectrum Viewer online tool to calculate the similarity index. The organoids were harvested in cold SFDM media and centrifuged at 400×g for 5 minutes. Supernatant was discarded and organoids were dissociated to single cells using Accutase® (Thermo Fisher Scientific 00-4555-56). The enzymatic reaction was stopped using prewarmed DPBS and cells were then centrifuged at 400×g for 5 minutes and incubated with fluorochrome-conjugated/unconjugated primary surface or cytoplasmic antibodies at 4° C. for 30 minutes. Cells were then washed with Cell Staining Buffer (BioLegend #420-201) and incubated with secondary antibodies at 4° C. for 30 minutes. Cells were fixed using Cytofix/Cytoperm™ Fixation/Permeabilization Solution (BD Biosciences #554714) at 4° C. for 20 minutes, followed by washing with Fixation/Permeabilization wash buffer. Cells were then labeled with fluorochrome-conjugated/unconjugated intracellular primary antibodies at 4° C. for 30 minutes, washed and incubated with secondary antibodies at 4° C. for 30 minutes. Cells resuspended in cell staining buffer and fluorescence measured using the Cytek Aurora 5 Laser Spectral Flow Cytometer. An unstained cell sample was fixed and used as reference control. UltraComp eBeads™, Compensation Beads (Thermo Fisher Scientific #01-2222-42) were stained with the individual antibodies and used as single stain control for compensation and gating. Data was acquired using the Cytek™ Aurora and analyzed using Cytobank software (Beckman Coulter, Indianapolis, IN).

hPITO37 = test: as above; type: cell-based, human; conditions: Mife 2.85 nM
Experimental: as §3

FKBP5 = test: GR modulation: GR target gene FKBP5 expression in PitNET organoids; type: cell-based, human
[6] = iPSC organoids (ctrl, USP48MI, USP48MV, USP8), 500 nM, vs vehicle
[7] = iPSC^ctrl organoids, drug alone (Mife 500 nM, GANT 5 uM, Keto 10 uM, Dexa 100 nM)

CC#C[C@]1(O)CC[C@H]2[C@@H]3CCC4=CC(=O)CCC4=C3[C@@H](c3ccc(N(C)C)cc3)C[C@@]21C [Mifepristone]
tumor (macroadenoma) regression (macroadenomas): have not been observed | apoptotic cells by nuclear morphology (NII) (iPSC^ctrl organoids [1]): not observed | apoptotic cells by nuclear morphology (NII) (iPSC^USP48MV organoids [2]): not observed | expression of SSTR2 (SSTR2; [6]): significant induction | differential expression of SSTR2 (SSTR2; [7]): significantly induced | expression of SSTR5 (SSTR5; [6]): significant induction | differential expression of SSTR5 (SSTR5; [7]): significantly induced | magnitude of ACTH secretion induced (iPSC^ctrl organoids [3]): significantly greater than the effect of relacorilant | magnitude of ACTH secretion induced (iPSC^USP48MV organoids [4]): significantly greater than the effect of relacorilant | ACTH positive cells (iPSC^USP48MV organoids [5]; Pas 100 nM): significant induction | cell death (Zombie positive cells) (iPSC^USP48MV organoids [5]; Pas 100 nM): not observed | percentage of SSTR2 positive cells (iPSC^USP48MV organoids [5]; vs Veh): significant increase | percentage of SSTR5 positive cells (iPSC^USP48MV organoids [5]; vs Veh): significant increase | number of ACTH expressing cells (hPITO37): significantly increased | cell death (Zombie positive cells) (hPITO37; Pas 837.5 nM, Rela 382 nM): not observed | percentage of SSTR2 positive cells (hPITO37; Rela 382 nM, vs Veh): significant increase | percentage of SSTR5 positive cells (hPITO37; Rela 382 nM, vs Veh): significant increase | differential expression of FKBP5 (FKBP5): significantly reduced
